Read-outs that look alike come from different tables or passages of the source.
Tests used:
[1] = system: activation of MAPK within vascular endothelial cells induced by VEGF stimulation; test: Inhibitory activity against activation of MAPK within vascular endothelial cells induced by VEGF stimulation; type: cell-based; settings: human funicular venous vascular endothelial cells, VEGF 50 ng/ml, phosphorylated MAPK by immunoblotting
Method: Measurement of Inhibitory Activity Against Activation of MAPK Within Vascular Endothelial Cells Induced by VEGF Stimulation
Human funicular venous vascular endothelial cells (purchased from Chronetics) were cultured in an EGM-2 medium (purchased from Chronetics) within an incubator containing 5% carbon dioxide until 50 to 70% confluent, and the culture was inoculated into wells, containing the same medium, in a 96-well flat-bottom plate in an amount of 1.5×10^5 per well. After cultivation at 37° C. overnight, the medium was replaced by an EBM-2 medium containing 0.5% fetal calf serum (purchased from Chronetics), followed by cultivation for 24 hr. A solution of the test compound in dimethyl sulfoxide was added to each well, and the cultivation was continued at 37° C. for additional one hr. A human recombinant vascular endothelial growth factor (hereinafter abbreviated to “VEGF”) was added to a final concentration of 50 ng/ml, and the stimulation of cells was carried out at 37° C. for 8 min. The medium was removed, the cells were washed with phosphate buffered saline (pH 7.4), and 10 μl of a solubilization buffer (Tris buffered saline (pH 7.4) containing 1% Triton X100, 2 mM sodium orthovanadylate, and 1 mM disodium ethylenediaminetetraacetate) was then added thereto. The mixture was shaken at 4° C. for one hr to solubilize the cells. An equal amount of Tris buffered saline containing 1% sodium laurylsulfate was added to and thoroughly mixed with the solution. This solution (2 μl) was adsorbed on a PVDF filter by dot blotting, and this filter was subjected to immunoblotting with anti-tyrosine phosphorylated MAPK antibody (purchased from Daiichi Pure Chemicals).
The level of phosphorylated MAPK was quantitatively determined with a densitometer, and the percentage phosphorylated MAPK in the presence of the test compound was determined by presuming the level of phosphorylated MAPK with the addition of VEGF in the absence of the test compound to be 100% and the level of phosphorylated MAPK in the absence of the test compound and VEGF to be 0%. The test compound concentration (IC50) necessary for inhibiting 50% of the activation of MAPK was calculated based on the percentage of phosphorylated MAPK.

Human glioma cells GL07 = test: Antitumor effect on human glioma cells (GL07) transplanted into nude mice; type: in vivo; settings: 20 mg/kg once a day for 9 days; for inhibition in vivo at 20 mg/kg: Mus musculus, Glioma cell, 216 h, read-out: TGIR, % (tumor growth inhibition rate)
In short: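 GL07 xenografts in nude mice, grouped (n=4) at ~100 mm^3 tumor volume. Test compound 20 mg/kg p.o. or i.p. once daily for 9 days; vehicle controls. TGIR = (1−Tx/Cx)×100 from tumor volumes normalized to day-of-start volume = 1.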

human KDR = target: T1, human KDR (Homo sapiens, UniProt P35968); test: Inhibitory activity against KDR phosphorylation by ELISA; type: cell-based; settings: NIH 3T3 cells transfected with human KDR, VEGF 100 ng/ml
T1 construct: expressed in transfected cells; host or cells: NIH 3T3 cells (Sawano A et al., Cell Growth & Differentiation 7, 213-221 (1996))
T1 sequence (P35968 20-1356): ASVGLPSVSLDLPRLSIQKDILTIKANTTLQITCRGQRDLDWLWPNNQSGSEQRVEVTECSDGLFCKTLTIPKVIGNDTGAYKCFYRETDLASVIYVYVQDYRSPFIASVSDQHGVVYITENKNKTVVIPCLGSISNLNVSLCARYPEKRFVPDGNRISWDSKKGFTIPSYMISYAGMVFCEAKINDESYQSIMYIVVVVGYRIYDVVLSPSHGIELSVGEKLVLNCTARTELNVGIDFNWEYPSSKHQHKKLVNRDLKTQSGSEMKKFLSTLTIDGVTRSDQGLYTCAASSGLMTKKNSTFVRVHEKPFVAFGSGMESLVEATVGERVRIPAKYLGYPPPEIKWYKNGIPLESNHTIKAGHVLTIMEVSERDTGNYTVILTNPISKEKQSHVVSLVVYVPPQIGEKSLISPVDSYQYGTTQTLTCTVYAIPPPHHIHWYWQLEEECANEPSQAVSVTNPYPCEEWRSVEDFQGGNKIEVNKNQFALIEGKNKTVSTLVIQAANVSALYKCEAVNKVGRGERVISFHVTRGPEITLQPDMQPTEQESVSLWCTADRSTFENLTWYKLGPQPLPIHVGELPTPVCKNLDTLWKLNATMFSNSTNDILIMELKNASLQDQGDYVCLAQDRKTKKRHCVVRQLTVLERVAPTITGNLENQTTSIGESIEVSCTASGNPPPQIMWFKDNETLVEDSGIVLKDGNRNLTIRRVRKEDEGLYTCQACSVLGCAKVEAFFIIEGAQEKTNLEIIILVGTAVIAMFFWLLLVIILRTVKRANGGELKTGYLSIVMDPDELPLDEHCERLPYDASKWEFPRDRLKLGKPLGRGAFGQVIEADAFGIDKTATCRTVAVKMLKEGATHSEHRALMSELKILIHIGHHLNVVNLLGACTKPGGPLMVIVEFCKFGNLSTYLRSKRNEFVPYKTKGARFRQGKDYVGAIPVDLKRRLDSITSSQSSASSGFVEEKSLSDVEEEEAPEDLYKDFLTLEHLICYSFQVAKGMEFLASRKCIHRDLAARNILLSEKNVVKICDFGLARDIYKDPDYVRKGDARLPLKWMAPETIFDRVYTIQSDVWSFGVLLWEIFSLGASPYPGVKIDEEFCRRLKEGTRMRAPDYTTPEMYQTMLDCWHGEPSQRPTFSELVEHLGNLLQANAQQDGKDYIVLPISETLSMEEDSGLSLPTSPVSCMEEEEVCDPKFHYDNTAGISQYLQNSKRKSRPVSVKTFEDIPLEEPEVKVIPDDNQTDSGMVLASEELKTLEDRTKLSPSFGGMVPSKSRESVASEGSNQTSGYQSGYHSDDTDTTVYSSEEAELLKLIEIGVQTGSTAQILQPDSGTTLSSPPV

| Structure (SMILES) | IC50 ([1]; Endothelial cell) [nM] | inhibition in vivo at 20 mg/kg (Human glioma cells GL07; GL07, oral) [%] | IC50 (human KDR) [nM] | further results |
| --- | --- | --- | --- | --- |
| COc1cc2nccc(Oc3ccc(NC(=O)NCc4ccc(F)cc4F)c(F)c3)c2cc1OC [Example 1, N-(2,4-Difluorobenzyl)-N′-{4-[(6,7-dimethoxy-4-quinolyl)oxy]-2-fluorophenyl}urea] | 1.8 |  |  |  |
| C=CCNC(=O)Nc1ccc(Oc2ccnc3cc(OC)c(OC)cc23)cc1F [Example 4, N-Allyl-N′-{4-[(6,7-dimethoxy-4-quinolyl)-oxy]-2-fluorophenyl}urea] | 2.1 | 61 |  |  |
| CCCNC(=O)Nc1ccc(Oc2ccnc3cc(OC)c(OC)cc23)cc1F [Example 5, N-{4-[(6,7-Dimethoxy-4-guinolyl)oxy]-2-fluorophenyl}-N′-propylurea] |  |  |  | IC50 [1]: 2.9 nM; TGIR, % (tumor growth inhibition rate) (Human glioma cells GL07; GL07, oral): 59% |
| C#CCNC(=O)Nc1ccc(Oc2ccnc3cc(OC)c(OC)cc23)cc1F [Example 7, N-{4-[(6,7-Dimethoxy-4-quinolyl)oxy]-2-fluorophenyl}-N′-(2-propynyl)urea] | 5.2 |  |  |  |
| CCNC(=O)Nc1ccc(Oc2ccnc3cc(OC)c(OC)cc23)cc1F [Example 8, N-{4-[(6,7-Dimethoxy-4-guinolyl)oxy]-2-fluorophenyl}-N′-ethylurea] |  |  |  | IC50 [1]: 11 nM |
| CCCCNC(=O)Nc1ccc(Oc2ccnc3cc(OC)c(OC)cc23)cc1F [Example 9, N-Butyl N′-{4-[(6,7-dimethoxy-4-quinolyl)oxy]-2-fluorophenyl}urea] | 5.1 |  |  | inhibition in vivo at 20 mg/kg (Human glioma cells GL07; ip, GL07, intraperitoneal): 59% |
| CCC(C)NC(=O)Nc1ccc(Oc2ccnc3cc(OC)c(OC)cc23)cc1F (stereo not shown) [Example 10, N-(sec-Butyl)-N′-{4-[(6,7-dimethoxy-4-quinolyl)oxy]-2-fluorophenyl}urea] | 7.8 |  |  |  |
| COc1cc2nccc(Oc3ccc(NC(=O)NCC(C)C)c(F)c3)c2cc1OC [Example 11, N-{4-[(6,7-Dimethoxy-4-quinolyl)oxy]-2-fluorophenyl}-N′-isobutylurea] | 15 |  |  |  |
| COc1cc2nccc(Oc3ccc(NC(=O)Nc4ccccc4C)c(Cl)c3)c2cc1OC [Example 19, N-{2-Chloro-4-[(6,7-dimethoxy-4-quinolyl)oxy]phenyl}-N′-(2-methylphenyl)urea] | 0.6 |  |  |  |
| COc1cc2nccc(Oc3ccc(NC(=O)Nc4cccc5ccccc45)c(Cl)c3)c2cc1OC [Example 23, N-{2-Chloro-4-[(6,7-dimethoxy-4-guinolyl)oxy]phenyl}-N′-(1-naphthyl)urea] |  |  |  | IC50 [1]: 5.4 nM |
| COc1cc2c(Oc3ccc(NC(=O)Nc4ccc(F)cc4F)c(F)c3)ccnc2cc1OCCN1CCOCC1 [Example 50, N-(2,4-Difluorophenyl)-N′-(2-fluoro-4-{[6-methoxy-7-(2-morpholinoethoxy)-4-quinolyl]oxy}phenyl)-urea] | 0.5 | 59 |  |  |
| COCCOc1cc2nccc(Oc3ccc(NC(=O)Nc4ccc(F)cc4F)c(Cl)c3)c2cc1OC [Example 54, N-(2-Chloro-4-{[6-methoxy-7-(2-methoxyethoxy)-4-quinolyl]oxy}phenyl)-N′-(2,4-difluorophenyl)urea] | 0.5 | 59 |  |  |
| COCCOc1cc2nccc(Oc3ccc(NC(=O)Nc4ccc(F)cc4F)c(C)c3C)c2cc1OC [Example 56, N-(2,4-Difluorophenyl)-N′-(4-{[6-methoxy-7-(2-methoxyethoxy)-4-quinolyl]oxy}-2,3-dimethylphenyl)-urea] | 5.1 |  |  |  |
| COCCOc1cc2nccc(Oc3ccc(NC(=O)Nc4ccccc4OC)c(C)c3C)c2cc1OC [Example 57, N-(4-{[6-Methoxy-7-(2-methoxyethoxy)-4-quinolyl]oxy}-2,3-dimethylphenyl)-N′-(2-methoxyphenyl)urea] | 6.5 |  |  |  |
| CCNC(=O)Nc1ccc(Oc2ncnc3cc(OC)c(OC)cc23)cc1 [Example 63, N-{4-[(6,7-Dimethoxy-4-quinazolinyl)oxy]-phenyl}-N′-ethylurea] | 70 |  | 150 |  |
| COc1cc2ncnc(Oc3ccc(NC(=O)NCc4ccc(F)cc4F)cc3)c2cc1OC [Example 70, N-(2,4-Difluorobenzyl)-N′-{4-[(6,7-dimethoxy-4-quinazolinyl)oxy]phenyl}urea] | 6.8 |  | 32 |  |
| COc1ccccc1NC(=O)Nc1ccc(Oc2ncnc3cc(OC)c(OC)cc23)cc1 [Example 75, N-{4-[(6,7-Dimethoxy-4-quinazolinyl)oxy]-phenyl}-N′-(2-methoxyphenyl)urea] | 1.2 |  | 1.4 |  |
| CCNC(=O)Nc1ccc(Oc2ncnc3cc(OC)c(OC)cc23)cc1Cl [Example 76, N-{2-chloro-4-[(6,7-dimethoxy-4-quinazolinyl)-oxy]phenyl}-N′-ethylurea] | 8 |  | 3.5 |  |
| COc1ccccc1NC(=O)Nc1ccc(Oc2ncnc3cc(OC)c(OC)cc23)cc1Cl [Example 86, N-{2-Chloro-4-[(6,7-dimethoxy-4-quinazolinyl)oxy]phenyl}-N′-(2-methoxyphenyl)urea] | 0.6 |  | 1.5 |  |
| COc1cc2c(Oc3cc(C)c(NC(=O)Nc4ccc(F)cc4F)cc3C)ccnc2cc1OCCn1ccnn1 [Example 177, N-(2,4-Difluorophenyl)-N′-[4-({6-methoxy-7-[2-(1H-1,2,3-triazol-1-yl)ethoxy]-4-guinolyl}oxy)-2,5-dimethylphenyl]urea] |  | 35 | 2.3 |  |
| COc1cc2c(Oc3ccc(NC(=O)N(C)C)c(Cl)c3)ncnc2cc1OCCN1CCOCC1 [Example 178, N′-(2-Chloro-4-{[6-methoxy-7-(2-morpholinoethoxy)-4-quinazolinyl]oxy}phenyl)-N,N-dimethylurea] |  | 28 | > 1000 |  |
| COc1cc2c(Oc3ccc(NC(=O)N(C)C)c(Cl)c3)ncnc2cc1OCCCCN1CCOCC1 [Example 179, N′-(2-Chloro-4-{[6-methoxy-7-(4-morpholinobutoxy)-4-quinazolinyl]oxy}phenyl)-N,N-dimethylurea] |  | 33 | > 1000 |  |
| COc1cc2c(Oc3ccc(NC(=O)N(C)C)c(Cl)c3)ncnc2cc1OCc1ccncc1 [Example 180, N′-(2-Chloro-4-{[6-methoxy-7-(4-pyridylmethoxy)-4-quinazolinyl]oxy}phenyl)-N,N-dimethylurea] |  | 45 | > 1000 |  |
| COC(=O)COc1cc2ncnc(Oc3ccc(NC(=O)N(C)C)c(Cl)c3)c2cc1OC [Example 181, Methyl 2-{[4-(3-chloro-4-{[(dimethylamino)carbonyl]amino}phenoxy)-6-methoxy-7-quinazolinyl]oxy}acetate] |  | 21 | > 1000 |  |
| COc1cc2c(Oc3ccc(NC(=O)N(C)C)c(Cl)c3)ncnc2cc1OCCCN1CCN(C)CC1 [Example 182, N′-[2-Chloro-4-({6-methoxy-7-[3-(4-methylpiperazino)propoxy]-4-quinazolinyl}oxy)phenyl]-N,N-dimethylurea] |  | 31 | > 1000 |  |
| COc1cc2c(Oc3ccc(NC(=O)N(C)C)c(Cl)c3)ncnc2cc1OCCCN(C)CCO [Example 183, N′-{2-Chloro-4-[(7-{3-[(2-hydroxyethyl)-(methyl)amino]propoxy}-6-methoxy-4-quinazolinyl)oxy]-phenyl}-N,N-dimethylurea] |  | 22 | > 1000 |  |
| CNC(=O)Nc1ccc(Oc2ncnc3cc(OCCCN4CCCCC4)c(OC)cc23)cc1Cl [Example 184, N-(2-chloro-4-{[6-methoxy-7-(3-piperidinopropoxy)-4-quinazolinyl]oxy}phenyl)-N′-methylurea] |  | 48 | 0.2 |  |
| CCNC(=O)Nc1ccc(Oc2ncnc3cc(OCCCN4CCCCC4)c(OC)cc23)cc1Cl [Example 185, N-(2-chloro-4-{[6-methoxy-7-(3-piperidinopropoxy)-4-quinazolinyl]oxy}phenyl)-N′-ethylurea] |  | 59 | 0.5 |  |
| COc1cc2c(Oc3ccc(NC(=O)Nc4ccc(F)cc4F)c(Cl)c3)ccnc2cc1OCc1ccncc1 [Example 186, N-(2-chloro-4-{[6-methoxy-7-(4-pyridylmethoxy)-4-quinolyl]oxy}phenyl)-N′-(2,4-difluorophenyl)urea] |  | 47 | 6.3 |  |
